Molecules are shown by their SMILES. Starred links: 1 amine or outer side, 2 acyl side, 3 side chain; linkers in the order of their positions; H or OH if unused. Positions of bridges follow the written chain, without caps; N, C: chain ends. Non-standard residues stand in square brackets, D forms with d. Residues, ends and D or L forms follow the SMILES beside them. *: point of attachment. NH(CH2)3NH(O2Oc(DOTA)) = O=C(O)CN1CCN(CC(=O)O)CCN(CC(=O)NCCOCCOCC(=O)NCCCN*)CCN(CC(=O)O)CC1; DOTA = O=C(O)CN1CCN(CC(=O)O)CCN(CC(=O)*)CCN(CC(=O)O)CC1; mXylylene = c1cc(C[*:1])cc(C[*:2])c1; X2 = O=C(CN1CCC(N[*:1])CC1)[*:2]; tBuAla = CC(C)(C)C[C@H](N)C(=O)O; Tic = O=C(O)[C@@H]1Cc2ccccc2CN1; Aic = NC1(C(=O)O)Cc2ccccc2C1; Pen = CC(C)(S)[C@H](N)C(=O)O; 4Amb = NCc1ccc(C(=O)O)cc1; Isovaleryl = CC(C)CC(=O)*; Thp = NC1(C(=O)O)CCOCC1; AEEA = NCCOCCOCC(=O)O; Aib = CC(C)(N)C(=O)O; Sar = CNCC(=O)O

The target of this experiment is T1, CAIX-expressing human HT-29 colorectal cancer cells (Homo sapiens, UniProt Q16790).
T1 construct: CAIX-expressing human HT-29 colorectal cancer cells; host or cells: HT-29 human colorectal cancer cells
As to the kind of experiment: FACS binding assay (IC50 determination, competition with tracer 3BP-2776 or 3BP-4149). To be noted: FACS competition on HT-29 cells, Tracer ID 3BP-2776 (10 nM, biotin-labeled), 4° C., 1 hour; read-out: pIC50 category (activity) (converted). In a few lines: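 HT-29 cells in FACS buffer (PBS, 1% FCS) at 500.000 cells/ml were exposed to compounds competing with a labelled tracer, with biotinylated compounds detected by 1 μg/mL APC-streptavidin for 30 min on ice. APC/Cy5 median fluorescence was read by flow cytometry and IC50 derived by 4PL fit.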
Background: A flow cytometer gives signals particle by particle.
As to `CC(=O)N[C@H](C(=O)N[C@@H](Cc1ccc(O)cc1)C(=O)N[C@H]1CSCc2cccc(c2)CSC[C@@H](C(=O)NCCOCCOCC(=O)N[C@@H](CCCCNC(=O)CN2CCN(CC(=O)O)CCN(CC(=O)O)CCN(CC(=O)O)CC2)C(N)=O)NC(=O)[C@H](C)NC(=O)[C@H](Cc2c[nH]c3ccccc23)NC(=O)[C@H]([C@@H](C)O)NC(=O)[C@H](CC(C)C)NC(=O)[C@H](Cc2c[nH]c3ccccc23)NC(=O)[C@H](CC(=O)O)NC(=O)[C@H]2CCCN2C(=O)[C@H](CCC(=O)O)NC1=O)C(C)C` [3BP-3474, Ac-Val-Tyr-[Cys(3MeBn)-Glu-pro-Asp-Trp-Leu-Thr-Trp-Ala-Cys]-O2Oc-Lys(DOTA)-NH2] (Ac-VYCE[dP]DWLTWAC[AEEA]K(DOTA)-NH2; linker 3-12 via mXylylene), the IC50 was less than 10 nM.
`CC(=O)N[C@H](C(=O)N[C@@H](Cc1ccc(O)cc1)C(=O)N[C@H]1CSCc2cccc(c2)CSC[C@@H](C(=O)NCc2ccc(C(=O)N[C@@H](CCCCNC(=O)CN3CCN(CC(=O)O)CCN(CC(=O)O)CCN(CC(=O)O)CC3)C(N)=O)cc2)NC(=O)[C@H](C)NC(=O)[C@H](Cc2c[nH]c3ccccc23)NC(=O)[C@H]([C@@H](C)O)NC(=O)[C@H](CC(C)C)NC(=O)[C@H](Cc2c[nH]c3ccccc23)NC(=O)[C@H](CC(=O)O)NC(=O)[C@H]2CCCN2C(=O)[C@H](CCC(=O)O)NC1=O)C(C)C` [3BP-3477] (Ac-VYCE[dP]DWLTWAC[4Amb]K(DOTA)-NH2; linker 3-12 via mXylylene): the IC50 is less than 10 nM.
The value for `CC(=O)N[C@H](C(=O)N[C@@H](Cc1ccc(O)cc1)C(=O)N[C@H]1CSCc2cccc(c2)CSC[C@@H](C(N)=O)NC(=O)[C@H](CCC(=O)NCCCNC(=O)COCCOCCNC(=O)CN2CCN(CC(=O)O)CCN(CC(=O)O)CCN(CC(=O)O)CC2)NC(=O)[C@H](Cc2c[nH]c3ccccc23)NC(=O)[C@H]([C@@H](C)O)NC(=O)[C@H](CC(C)C)NC(=O)[C@H](Cc2c[nH]c3ccccc23)NC(=O)[C@H](CC(=O)O)NC(=O)[C@H]2CCCN2C(=O)[C@H](CCC(=O)O)NC1=O)C(C)C` [3BP-3479] (Ac-VYCE[dP]DWLTWE(NH(CH2)3NH(O2Oc(DOTA)))C-NH2; linker 3-12 via mXylylene) was less than 10 nM.
The result for `CC(=O)N[C@H](C(=O)N[C@@H](Cc1ccc(O)cc1)C(=O)N[C@H]1CSCc2cccc(c2)CSC[C@@H](C(N)=O)NC(=O)[C@H](C)NC(=O)[C@H](Cc2c[nH]c3ccccc23)NC(=O)[C@H]([C@@H](C)O)NC(=O)[C@H](CC(C)(C)C)NC(=O)[C@H](Cc2c[nH]c3ccccc23)NC(=O)[C@H](CC(=O)O)NC(=O)[C@H]2CCCN2C(=O)[C@H](CCC(=O)O)NC1=O)C(C)C` [3BP-3490] (Ac-VYCE[dP]DW[tBuAla]TWAC-NH2; linker 3-12 via mXylylene) reads less than 10 nM; that for `CC(=O)N[C@H](C(=O)N[C@@H](Cc1ccc(O)cc1)C(=O)N[C@H]1CSCc2cccc(c2)CSC(C)(C)[C@@H](C(N)=O)NC(=O)[C@H](C)NC(=O)[C@H](Cc2c[nH]c3ccccc23)NC(=O)[C@H]([C@@H](C)O)NC(=O)[C@H](CC(C)C)NC(=O)[C@H](Cc2c[nH]c3ccccc23)NC(=O)[C@H](CC(=O)O)NC(=O)[C@H]2CCCN2C(=O)[C@H](CCC(=O)O)NC1=O)C(C)C` [3BP-3492] (Ac-VYCE[dP]DWLTWA[Pen]-NH2; linker 3-12 via mXylylene), less than 10 nM.
The value for `CC(=O)N[C@H](C(=O)N[C@@H](Cc1ccc(O)cc1)C(=O)N[C@H]1CSCc2cccc(c2)CSC(C)(C)[C@@H](C(N)=O)NC(=O)[C@H](C)NC(=O)[C@H](Cc2c[nH]c3ccccc23)NC(=O)[C@H]([C@@H](C)O)NC(=O)[C@H](CC(C)(C)C)NC(=O)[C@H](Cc2c[nH]c3ccccc23)NC(=O)[C@H](CC(=O)O)NC(=O)[C@H]2CCCN2C(=O)[C@H](CCC(=O)O)NC1=O)C(C)C` [3BP-3493] (Ac-VYCE[dP]DW[tBuAla]TWA[Pen]-NH2; linker 3-12 via mXylylene) was less than 10 nM.
For `CC(=O)N[C@H](C(=O)N[C@@H](Cc1ccc(O)cc1)C(=O)N[C@H]1CSCc2cccc(c2)CSC(C)(C)[C@@H](C(N)=O)NC(=O)[C@H](C)NC(=O)[C@H](Cc2c[nH]c3ccccc23)NC(=O)[C@H]([C@@H](C)O)NC(=O)[C@H](CC(C)(C)C)NC(=O)[C@H](Cc2c[nH]c3ccccc23)NC(=O)[C@H](CC(=O)O)NC(=O)CN(C)C(=O)[C@H](CCC(=O)O)NC1=O)C(C)C` [3BP-3501] (Ac-VYCE[Sar]DW[tBuAla]TWA[Pen]-NH2; linker 3-12 via mXylylene), the IC50 was less than 10 nM.
The result for `CC(=O)N[C@H](C(=O)N[C@@H](Cc1ccc(O)cc1)C(=O)N[C@H]1CSCc2cccc(c2)CSC[C@@H](C(N)=O)NC(=O)[C@H](C)NC(=O)[C@H](Cc2c[nH]c3ccccc23)NC(=O)[C@H]([C@@H](C)O)NC(=O)C(C)(C)NC(=O)[C@H](Cc2c[nH]c3ccccc23)NC(=O)[C@H](CC(=O)O)NC(=O)[C@H]2CCCN2C(=O)[C@H](CCC(=O)O)NC1=O)C(C)C` [3BP-3502] (Ac-VYCE[dP]DW[Aib]TWAC-NH2; linker 3-12 via mXylylene) reads 10 to 79.4 nM; that for `CC(=O)N[C@@H](CO)C(=O)N[C@@H](Cc1ccc(O)cc1)C(=O)N[C@H]1CSCc2cccc(c2)CSC[C@@H](C(N)=O)NC(=O)[C@H](CO)NC(=O)[C@H](Cc2c[nH]c3ccccc23)NC(=O)[C@H]([C@@H](C)O)NC(=O)[C@H](CC(C)C)NC(=O)[C@H](Cc2c[nH]c3ccccc23)NC(=O)[C@H](CC(=O)O)NC(=O)[C@H]2CCCN2C(=O)[C@H](CCC(=O)O)NC1=O` [3BP-3566] (Ac-SYCE[dP]DWLTWSC-NH2; linker 3-12 via mXylylene), less than 10 nM.
The result for `CC(=O)N[C@H](C(=O)N[C@@H](Cc1ccc(O)cc1)C(=O)N[C@H]1CSCc2cccc(c2)CSC[C@@H](C(N)=O)NC(=O)[C@H](CO)NC(=O)[C@H](Cc2c[nH]c3ccccc23)NC(=O)[C@H]([C@@H](C)O)NC(=O)[C@H](CC(C)C)NC(=O)[C@H](Cc2c[nH]c3ccccc23)NC(=O)[C@H](CC(=O)O)NC(=O)[C@H]2CCCN2C(=O)[C@H](CCC(=O)O)NC1=O)[C@@H](C)O` [3BP-3567] (Ac-TYCE[dP]DWLTWSC-NH2; linker 3-12 via mXylylene) reads less than 10 nM.
Take `CC[C@H](C)[C@H](NC(C)=O)C(=O)N[C@@H](Cc1ccc(O)cc1)C(=O)N[C@H]1CSCc2cccc(c2)CSC[C@@H](C(N)=O)NC(=O)[C@H](CO)NC(=O)[C@H](Cc2c[nH]c3ccccc23)NC(=O)[C@H]([C@@H](C)O)NC(=O)[C@H](CC(C)C)NC(=O)[C@H](Cc2c[nH]c3ccccc23)NC(=O)[C@H](CC(=O)O)NC(=O)[C@H]2CCCN2C(=O)[C@H](CCC(=O)O)NC1=O` [3BP-3568] (Ac-IYCE[dP]DWLTWSC-NH2; linker 3-12 via mXylylene): the IC50 was less than 10 nM.
As to `CC(C)CC(=O)N[C@@H](Cc1ccc(O)cc1)C(=O)N[C@H]1CSCc2cccc(c2)CSC[C@@H](C(N)=O)NC(=O)[C@H](CO)NC(=O)[C@H](Cc2c[nH]c3ccccc23)NC(=O)[C@H]([C@@H](C)O)NC(=O)[C@H](CC(C)C)NC(=O)[C@H](Cc2c[nH]c3ccccc23)NC(=O)[C@H](CC(=O)O)NC(=O)[C@H]2CCCN2C(=O)[C@H](CCC(=O)O)NC1=O` [3BP-3569] (Isovaleryl-YCE[dP]DWLTWSC-NH2; linker 2-11 via mXylylene), the IC50 was less than 10 nM.
The result for `CC(=O)N[C@H](C(=O)N[C@@H](Cc1ccccc1)C(=O)N[C@H]1CSCc2cccc(c2)CSC[C@@H](C(N)=O)NC(=O)[C@H](CO)NC(=O)[C@H](Cc2c[nH]c3ccccc23)NC(=O)[C@H]([C@@H](C)O)NC(=O)[C@H](CC(C)C)NC(=O)[C@H](Cc2c[nH]c3ccccc23)NC(=O)[C@H](CC(=O)O)NC(=O)[C@H]2CCCN2C(=O)[C@H](CCC(=O)O)NC1=O)C(C)C` [3BP-3570] (Ac-VFCE[dP]DWLTWSC-NH2; linker 3-12 via mXylylene) reads less than 10 nM; that for `CC(=O)N[C@H](C(=O)N[C@@H](CO)C(=O)N[C@H]1CSCc2cccc(c2)CSC[C@@H](C(N)=O)NC(=O)[C@H](CO)NC(=O)[C@H](Cc2c[nH]c3ccccc23)NC(=O)[C@H]([C@@H](C)O)NC(=O)[C@H](CC(C)C)NC(=O)[C@H](Cc2c[nH]c3ccccc23)NC(=O)[C@H](CC(=O)O)NC(=O)[C@H]2CCCN2C(=O)[C@H](CCC(=O)O)NC1=O)C(C)C` [3BP-3571] (Ac-VSCE[dP]DWLTWSC-NH2; linker 3-12 via mXylylene), less than 10 nM.
The result for `CC(=O)N[C@H](C(=O)N1Cc2ccccc2C[C@H]1C(=O)N[C@H]1CSCc2cccc(c2)CSC[C@@H](C(N)=O)NC(=O)[C@H](CO)NC(=O)[C@H](Cc2c[nH]c3ccccc23)NC(=O)[C@H]([C@@H](C)O)NC(=O)[C@H](CC(C)C)NC(=O)[C@H](Cc2c[nH]c3ccccc23)NC(=O)[C@H](CC(=O)O)NC(=O)[C@H]2CCCN2C(=O)[C@H](CCC(=O)O)NC1=O)C(C)C` [3BP-3572] (Ac-V[Tic]CE[dP]DWLTWSC-NH2; linker 3-12 via mXylylene) reads 10 to 79.4 nM; that for `CC(C)[C@H](NC(=O)CN1CCC(NC(=O)CN2CCN(CC(=O)O)CCN(CC(=O)O)CCN(CC(=O)O)CC2)CC1)C(=O)N[C@@H](Cc1ccc(O)cc1)C(=O)N[C@H]1CSCc2cccc(c2)CSC[C@@H](C(N)=O)NC(=O)[C@H](CO)NC(=O)[C@H](Cc2c[nH]c3ccccc23)NC(=O)[C@H]([C@@H](C)O)NC(=O)C2(CCOCC2)NC(=O)[C@H](Cc2c[nH]c3ccccc23)NC(=O)[C@H](CC(=O)O)NC(=O)[C@H]2CCCN2C(=O)[C@H](CCC(=O)O)NC1=O` [3BP-3585] ({DOTA}-[X2]VYCE[dP]DW[Thp]TWSC-NH2; linker 4-13 via mXylylene), less than 10 nM.
The result for `CC(C)[C@H](NC(=O)CN1CCC(NC(=O)CN2CCN(CC(=O)O)CCN(CC(=O)O)CCN(CC(=O)O)CC2)CC1)C(=O)N[C@@H](Cc1ccc(O)cc1)C(=O)N[C@H]1CSCc2cccc(c2)CSC[C@@H](C(N)=O)NC(=O)[C@H](CO)NC(=O)[C@H](Cc2c[nH]c3ccccc23)NC(=O)[C@H]([C@@H](C)O)NC(=O)C2(Cc3ccccc3C2)NC(=O)[C@H](Cc2c[nH]c3ccccc23)NC(=O)[C@H](CC(=O)O)NC(=O)[C@H]2CCCN2C(=O)[C@H](CCC(=O)O)NC1=O` [3BP-3586] ({DOTA}-[X2]VYCE[dP]DW[Aic]TWSC-NH2; linker 4-13 via mXylylene) reads less than 10 nM.

These data come from patent US20250339569A1, “CARBONIC ANHYDRASE IX LIGANDS” (priority 2021, published 2025).
